Columns and labels:
[1] = Carrageenin-induced edema; type: in vivo, Male Wister rats; conditions: oral, 1 h before carrageenin, rat hind paw, 3 h
Experimental: (a) Carrageenin-induced edema
Male Wister rats (weighing 130-170 g.), one group being 6 rats, fasted overnight were used. According to Winter's method [Proc. Soc. Exp. Biol. Med., 111,544 (1962)], 0.1 ml. of 1% carrageenin [Iwai Kagaku Yakuhin K.K. Seakem] suspension in 0.9% saline was injected into the planter tissue of the left hind paw. After 3 hours, each rat was sacrificed by chloroform and the hind paw was cut and weighed immediately. By using the value obtained by subtracting the weight of the untreated hind paw from the weight of the hind paw having injected therein the carrageenin as the weight of edema, the inhibitory ratio of the sample administered rat groups to control groups was calculated. The sample was orally administered before one hour of the injection of Carrageenin.
In addition, the test samples used in the aforesaid tests (a) and (b) were prepared by suspending the test compounds in an aqueous 0.5% methyl cellulose solutions.

[2] = Whittle's method, writhing (acetic acid); type: in vivo, Male ICR-Mice; conditions: 50 mg/kg P.O., mice; 0.6% acetic acid i.p.
Experimental: (§1) Male ICR-Mice (weighting 25-35 g.), one group being 12 mice, fasted overnight were used in this test. The sample was orally administered, and 20 minutes after, 5 ml./Kg. of 0.4% Evance blue was injected intravenously and 10 minutes thereafter, 10 ml./Kg. of 0.6% acetic acid was injected intraperitoneally. The number of writhings after 20 minutes following the administration of acetic acid was recorded and after an additional 10 minutes, the mice were killed by dislocation of the neck, the dye leaked in the abdominal cavity was washed out with 5 ml. of 0.9% saline to make the total amount 10 ml., and thereafter furs, blood corpuscles, etc., intermingled were removed by centrifugal separation at 3,000 r.p.m. for 5 minutes. Furthermore, to prevent turbidity caused by protein, 0.1 ml. of an aqueous 0.1 normal sodium hydroxide was added and then the absorbance at 590 nm was measured. The inhibition ratio of the sample administered rat groups to control groups was calculated.

[3] = 50 mg/kg
Experimental: as §1

Structure (SMILES)	Inhibition (Carrageenin-induced edema) ([1]; 50 mg/kg) [%]	Inhibition (Carrageenin-induced edema) ([1]; 100 mg/kg) [%]	Inhibition (%) Writhing [2] [%]	Inhibition (%) Permeability [3] [%]
Cn1c(S(C)(=O)=O)cc2ccccc2c1=O [Ex. 5, 2-methyl-3-methylsulfonyl-1-oxo-1,2-dihydroisoquinoline]	50.7	68.1	45.8	47.1
CSc1cc2ccccc2c(=O)n1C [Ex. 1, 2-methyl-3-methylthio-1-oxo-1,2-dihydroisoquinoline]		57.3		
CCCCC1C(=O)N(c2ccccc2)N(c2ccccc2)C1=O [Phenyl butazone, reference compound]	44.5	51.2		
Cc1c(N(C)C)c(=O)n(-c2ccccc2)n1C [Aminopyrine, reference compound]			58.1	41.7
Cn1c([S+](C)[O-])cc2ccccc2c1=O (centres unmarked) [Ex. 4, 2-methyl-3-methylsulfinyl-1-oxo-1,2-dihydroisoquinoline]	55.8	68.2	39.7	42.8
CCn1c(SC)cc2ccccc2c1=O [Ex. 2, 2-ethyl-3-methylthio-1-oxo-1,2-dihydroisoquinoline]	38.5			
